Test results from DBAASP.
In brackets after ≈: the same amount, converted by molar mass. Several values for one entry are separate records, joined by “and”; a condition that tells them apart may be missing. Identical values can stand only once.

Tests used:
Experiment in all cases: ≥ marks a high value that may be exact or a test limit, other limits are often not marked, values filed in µg/mL are converted to µM
Pseudomonas aeruginosa = test system: Pseudomonas aeruginosa
Botrytis cinerea = test system: Botrytis cinerea
Saccharomyces cerevisiae = test system: Saccharomyces cerevisiae
[1] = test system: Escherichia coli O157:H7 ATCC 43895
[2] = test system: Listeria monocytogenes KCTC 3710
Escherichia coli = test system: Escherichia coli
Salmonella typhimurium = test system: Salmonella typhimurium
[3] = test system: Candida albicans KCTC 7270
[4] = test system: Aspergillus fumigatus KCTC 6145
Proteus vulgaris = test system: Proteus vulgaris
Trichosporon beigelii = test system: Trichosporon beigelii
Staphylococcus aureus = test system: Staphylococcus aureus
Bacillus subtilis = test system: Bacillus subtilis
Fusarium verticillioides = test system: Fusarium verticillioides
[5] = test system: Staphylococcus epidermidis
[6] = test system: Aspergillus flavus KCTC 9471
[7] = test system: Staphylococcus aureus ATCC 25923
[8] = test system: Pseudomonas aeruginosa ATCC 15692
[9] = test system: Bacillus subtilis KCTC 1998
[10] = test system: Escherichia coli ATCC 25922
[11] = test system: Pseudomonas syringae pv. tabaci
[12] = test system: Candida albicans ATCC 90028
[13] = test system: Pectobacterium carotovorum
[14] = test system: Cryptococcus neoformans ATCC 28957
[15] = test system: Xanthomonas campestris pv. citri
Rhizoctonia solani = test system: Rhizoctonia solani
Fusarium oxysporum = test system: Fusarium oxysporum
[16] = test system: Pseudomonas aeruginosa ATCC 27853
Ramulariopsis gossypii = test system: Ramulariopsis gossypii
Fusarium solani = test system: Fusarium solani
[17] = test system: Bacillus cereus ATCC 14579
[18] = test system: Fusarium oxysporum f.sp. vasinfectum
[19] = test system: Bacillus subtilis ATCC 23857
Trichoderma asperellum = test system: Trichoderma asperellum
[20] = test system: Escherichia coli ATCC 35218
[21] = test system: Salmonella enterica subsp. enterica serovar Typhimurium ATCC 14028
[22] = test system: Escherichia coli ATCC 11775
[23] = test system: Salmonella enterica subsp. enterica serovar Typhi Vi+

Row | Compound | MIC [7] | MIC [10] | MIC [11] | MIC [12] | MIC (Pseudomonas aeruginosa) | MIC (Botrytis cinerea) | MIC (Saccharomyces cerevisiae) | MIC [1] | MIC [2] | MIC (Escherichia coli) | MIC (Salmonella typhimurium) | MIC [3] | MIC [4] | MIC (Proteus vulgaris) | MIC (Trichosporon beigelii) | MIC (Staphylococcus aureus) | MIC (Bacillus subtilis) | MIC (Fusarium verticillioides) | MIC [5] | MIC [6] | further results
1 | CC[C@H](C)[C@H](NC(=O)[C@H](CCCCN)NC(=O)[C@H](CO)NC(=O)[C@H](Cc1ccccc1)NC(=O)[C@H](CC(C)C)NC(=O)[C@H](CCCCN)NC(=O)[C@H](CCC(=O)O)NC(=O)[C@H](CC(C)C)NC(=O)[C@H](CCCN=C(N)N)NC(=O)[C@H](CCCCN)NC(=O)[C@H](Cc1ccccc1)NC(=O)[C@@H](NC(=O)[C@H](CCCCN)NC(=O)[C@H](CCCCN)NC(=O)[C@H](C)N)C(C)C)C(=O)N[C@@H](Cc1c[nH]c2ccccc12)C(=O)N[C@@H](CC(N)=O)C(=O)N[C@@H](CC(=O)O)C(=O)N[C@@H](CCCCN)C(N)=O [AKKVFKRLEKLFSKIWNDK] | – | – | – | – | 6.25 µM (≈ 14.9 µg/mL) | 6.25 µM (≈ 14.9 µg/mL) | 25 µM (≈ 59.4 µg/mL) | 6.25 µM (≈ 14.9 µg/mL) | 1.56 µM (≈ 3.71 µg/mL) | 3.13 µM (≈ 7.44 µg/mL) | 0.78 µM (≈ 1.85 µg/mL) | 25 µM (≈ 59.4 µg/mL) | ≥ 50 µM | 3.13 µM (≈ 7.44 µg/mL) | 1.56 µM (≈ 3.71 µg/mL) | 6.25 µM (≈ 14.9 µg/mL) | 1.56 µM (≈ 3.71 µg/mL) | 25 µM (≈ 59.4 µg/mL) | 3.13 µM (≈ 7.44 µg/mL) | ≥ 50 µM | –
2 | CC[C@H](C)[C@H](NC(=O)[C@H](CCCCN)NC(=O)[C@H](CO)NC(=O)[C@H](Cc1ccccc1)NC(=O)[C@H](CC(C)C)NC(=O)[C@H](CCCCN)NC(=O)[C@H](CCC(=O)O)NC(=O)[C@H](CC(C)C)NC(=O)[C@H](CCCN=C(N)N)NC(=O)[C@H](CCCCN)NC(=O)[C@H](Cc1ccccc1)NC(=O)[C@@H](NC(=O)[C@H](CCCCN)NC(=O)[C@H](CCCCN)NC(=O)[C@H](C)N)C(C)C)C(=O)N[C@@H](Cc1c[nH]c2ccccc12)C(=O)N[C@@H](CC(N)=O)C(=O)N[C@@H](Cc1c[nH]c2ccccc12)C(=O)N[C@@H](CCCCN)C(N)=O [AKKVFKRLEKLFSKIWNWK] | 2 µM (≈ 4.9 µg/mL) | 2 µM (≈ 4.9 µg/mL) | – | – | 3.13 µM (≈ 7.67 µg/mL) | 3.13 µM (≈ 7.67 µg/mL) | 25 µM (≈ 61.2 µg/mL) | 3.13 µM (≈ 7.67 µg/mL) | 0.39 µM (≈ 0.955 µg/mL) | 1.56 µM (≈ 3.82 µg/mL) | 0.39 µM (≈ 0.955 µg/mL) | 12.5 µM (≈ 30.6 µg/mL) | 25 µM (≈ 61.2 µg/mL) | 3.13 µM (≈ 7.67 µg/mL) | 1.56 µM (≈ 3.82 µg/mL) | 1.56 µM and 3.13 µM | 1.56 µM (≈ 3.82 µg/mL) | 12.5 µM (≈ 30.6 µg/mL) | 3.13 µM (≈ 7.67 µg/mL) | 25 µM (≈ 61.2 µg/mL) | MIC [8]: 2 µM (≈ 4.9 µg/mL); MIC [9]: 2 µM (≈ 4.9 µg/mL)
3 | CSCC[C@H](NC(=O)[C@H](CCCCN)NC(=O)[C@H](Cc1ccc(O)cc1)NC(=O)[C@H](C)NC(=O)[C@H](CCC(=O)O)NC(=O)[C@H](CC(C)C)NC(=O)[C@H](CC(C)C)NC(=O)[C@H](CCCN=C(N)N)NC(=O)[C@H](CC(N)=O)NC(=O)[C@H](C)N)C(=O)N[C@@H](CC(C)C)C(=O)N[C@@H](CC(C)C)C(=O)N[C@@H](CCCCN)C(=O)N[C@@H](Cc1ccccc1)C(=O)N[C@@H](CC(C)C)C(=O)NCC(=O)N[C@@H](CC(N)=O)C(=O)N[C@@H](CC(C)C)C(=O)N[C@@H](CCCN=C(N)N)C(N)=O [ANRLLEAYKMLLKFLGNLR] | 1 µM (≈ 2.26 µg/mL) | 4 µM (≈ 9.05 µg/mL) | 2 µM (≈ 4.53 µg/mL) | 4 µM (≈ 9.05 µg/mL) | – | – | – | – | – | – | – | – | – | – | – | – | – | – | – | – | MIC [13]: 1 µM (≈ 2.26 µg/mL); MIC [14]: 2.67 µM (≈ 6.04 µg/mL); MIC [15]: 4 µM (≈ 9.05 µg/mL); MIC (Rhizoctonia solani): 4 µM (≈ 9.05 µg/mL); MIC (Fusarium oxysporum): 4 µM (≈ 9.05 µg/mL); MIC [16]: 32 µM (≈ 72.4 µg/mL); MIC (Ramulariopsis gossypii): 2 µM (≈ 4.53 µg/mL); MIC (Fusarium solani): 2 µM (≈ 4.53 µg/mL); MIC [17]: 4 µM (≈ 9.05 µg/mL); MIC [18]: 1.67 µM (≈ 3.78 µg/mL); MIC [19]: 1 µM (≈ 2.26 µg/mL); MIC (Trichoderma asperellum): 4 µM (≈ 9.05 µg/mL)
4 | CC[C@H](C)[C@H](NC(=O)[C@@H]1CCCN1C(=O)[C@H](CCCN=C(N)N)NC(=O)[C@@H]1CCCN1C(=O)[C@H](Cc1cnc[nH]1)NC(=O)[C@H](CO)NC(=O)[C@@H](NC(=O)[C@@H]1CCCN1C(=O)[C@H](CCCN=C(N)N)NC(=O)[C@@H]1CCCN1C(=O)[C@H](CO)NC(=O)[C@H](Cc1ccc(O)cc1)NC(=O)[C@@H]1CCCN1C(=O)[C@H](CCCCN)NC(=O)[C@@H]1CCCN1C(=O)[C@H](CCCCN)NC(=O)CN)[C@@H](C)O)C(=O)N[C@@H](CCCN=C(N)N)C(=O)N[C@H](C(=O)O)C(C)C [GKPKPYSPRPTSHPRPIRV] | – | 1.5 µM (≈ 3.26 µg/mL) | – | – | – | – | – | – | – | – | – | – | – | – | – | – | – | – | – | – | MIC [20]: 0.6 µM (≈ 1.3 µg/mL); MIC [21]: 4 µM (≈ 8.68 µg/mL); MIC [22]: 1.1 µM (≈ 2.39 µg/mL); MIC [23]: 4 µM (≈ 8.68 µg/mL)

The next lines start with results.

Row | MIC [7] | MIC [10] | MIC [11] | MIC [12] | Compound | MIC (Pseudomonas aeruginosa) | MIC (Botrytis cinerea) | MIC (Saccharomyces cerevisiae) | MIC [1] | MIC [2] | MIC (Escherichia coli) | MIC (Salmonella typhimurium) | MIC [3] | MIC [4] | MIC (Proteus vulgaris) | MIC (Trichosporon beigelii) | MIC (Staphylococcus aureus) | MIC (Bacillus subtilis) | MIC (Fusarium verticillioides) | MIC [5] | MIC [6] | further results
5 | – | 7 µM (≈ 15.2 µg/mL) | – | – | CC[C@H](C)[C@H](NC(=O)[C@@H]1CCCN1C(=O)[C@H](CCCCN)NC(=O)[C@@H]1CCCN1C(=O)[C@H](Cc1cnc[nH]1)NC(=O)[C@H](CO)NC(=O)[C@@H](NC(=O)[C@@H]1CCCN1C(=O)[C@H](CCCN=C(N)N)NC(=O)[C@@H]1CCCN1C(=O)[C@H](CO)NC(=O)[C@H](Cc1ccc(O)cc1)NC(=O)[C@@H]1CCCN1C(=O)[C@H](CCCN=C(N)N)NC(=O)[C@@H]1CCCN1C(=O)[C@H](CCCCN)NC(=O)CN)[C@@H](C)O)C(=O)N[C@@H](CCCN=C(N)N)C(=O)N[C@H](C(=O)O)C(C)C [GKPRPYSPRPTSHPKPIRV] | – | – | – | – | – | – | – | – | – | – | – | – | – | – | – | – | MIC [20]: 3.5 µM (≈ 7.6 µg/mL); MIC [21]: 25 µM (≈ 54.3 µg/mL); MIC [22]: 6 µM (≈ 13 µg/mL); MIC [23]: 30 µM (≈ 65.1 µg/mL)
6 | 16 µM (≈ 36.2 µg/mL) | 64 µM (≈ 145 µg/mL) | 16 µM (≈ 36.2 µg/mL) | 16 µM (≈ 36.2 µg/mL) | CSCC[C@H](NC(=O)[C@H](Cc1ccccc1)NC(=O)CNC(=O)[C@H](Cc1cnc[nH]1)NC(=O)[C@H](CC(C)C)NC(=O)[C@H](CO)NC(=O)CN)C(=O)N[C@@H](Cc1ccc(O)cc1)C(=O)N[C@@H](CCCCN)C(=O)N[C@@H](Cc1ccc(O)cc1)C(=O)N[C@@H](CC(C)C)C(=O)N[C@@H](CCCCN)C(=O)N[C@@H](CC(N)=O)C(=O)N[C@@H](CCSC)C(=O)N[C@H](C(=O)N[C@@H](CC(C)C)C(=O)N[C@H](C(=O)N[C@@H](CC(C)C)C(=O)N[C@@H](Cc1ccccc1)C(N)=O)[C@@H](C)O)C(C)C [GSLHGFMYKYLKNMVLTLF] | – | – | – | – | – | – | – | – | – | – | – | – | – | – | – | – | MIC [13]: ≥ 256 µM; MIC [14]: 16 µM (≈ 36.2 µg/mL); MIC [15]: ≥ 128 µM; MIC (Fusarium oxysporum): 16 µM (≈ 36.2 µg/mL); MIC [16]: 32 µM (≈ 72.4 µg/mL); MIC (Ramulariopsis gossypii): 4 µM (≈ 9.05 µg/mL); MIC (Fusarium solani): ≥ 32 µM; MIC [17]: ≥ 128 µM; MIC [18]: 8 µM (≈ 18.1 µg/mL); MIC [19]: 16 µM (≈ 36.2 µg/mL); MIC (Trichoderma asperellum): 8 µM (≈ 18.1 µg/mL)
